Data published in patent US7749996B2, “Heterotricyclic metalloprotease inhibitors” (Alantos Pharmaceutical Holdings, Inc., priority 2006, dated 2010).

Assays:
[1] = biological target: T1, catalytic domain of MMP-13 enzyme (Homo sapiens, UniProt P45452); assay: Assay for determining MMP-13 inhibition (fluorescent substrate); type: biochemical; details: Table 1, activity group
T1 construct: stock solution of catalytic domain of MMP-13 enzyme (produced by Alantos or commercially available from Invitek (Berlin), Cat.# 30100812); purchased Invitek (Berlin) 30100812
Experimental: (§1) The typical assay for MMP-13 activity is carried out in assay buffer comprised of 50 mM Tris, pH 7.5, 150 mM NaCl, 5 mM CaCl2 and 0.05% Brij-35. Different concentrations of tested compounds are prepared in assay buffer in 50 μL aliquots. […] The mixture of enzyme and compound in assay buffer is thoroughly mixed and incubated for 10 min at room temperature. […] The time-dependent increase in fluorescence is measured at the 320 nm excitation and 390 nm emission by automatic plate multireader. The IC50 values are calculated from the initial reaction rates.

[2] = biological target: T2, activated MMP-8 enzyme (Homo sapiens, UniProt P22894); assay: Assay for determining MMP-8 inhibition (fluorescent substrate); type: biochemical; details: Table 2, activity group
T2 construct: purchased Calbiochem 444229
T2 sequence (P22894 101-467): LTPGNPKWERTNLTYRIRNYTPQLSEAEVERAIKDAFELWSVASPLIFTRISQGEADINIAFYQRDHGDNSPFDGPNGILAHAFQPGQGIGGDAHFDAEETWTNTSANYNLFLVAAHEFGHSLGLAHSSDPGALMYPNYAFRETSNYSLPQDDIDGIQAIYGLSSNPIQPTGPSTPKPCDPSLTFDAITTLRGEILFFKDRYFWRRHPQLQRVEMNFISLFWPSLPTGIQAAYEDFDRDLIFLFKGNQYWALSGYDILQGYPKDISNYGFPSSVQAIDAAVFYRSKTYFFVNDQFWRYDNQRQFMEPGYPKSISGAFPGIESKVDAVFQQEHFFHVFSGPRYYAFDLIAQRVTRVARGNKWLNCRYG
Experimental: as §1, with “MMP-8” for “MMP-13”, “37° C.” for “room temperature.”, “by an” for “by”, “multireader at 37° C.” for “multireader.”

| IC50 [1] [nM] | IC50 [2] [nM] | SMILES |
| --- | --- | --- |
| < 100 | < 250 | CC1SCc2sc3nc(C(=O)NCc4ccc5c(c4)NC(=O)CO5)[nH]c(=O)c3c21 (stereo not drawn) [2/131] |
| < 100 | < 250 | CS(=O)(=O)c1ccc(CNC(=O)C2CCc3sc4nc(C(=O)NCc5ccc6c(c5)NC(=O)CO6)[nH]c(=O)c4c32)cc1 (stereo not drawn) [2/170] |
| < 100 | 250 to 20000 | Nc1c(NCc2cc(CNC(=O)c3nc4sc5c(c4c(=O)[nH]3)CCC5)ccc2F)c(=O)c1=O [2/417] |
|  | < 250 | COC(=O)C1Cc2sc3nc(C(=O)NCc4ccc5c(c4)CN(c4c(N)c(=O)c4=O)CC5)[nH]c(=O)c3c2C1 (stereo not drawn) [2/230] |
| < 100 |  | Nc1c(N2CCc3ccc(CNC(=O)c4nc5sc6c(c5c(=O)[nH]4)CCCSC6)cc3C2)c(=O)c1=O [2/219] |
| < 100 | < 250 | O=C1COc2ccc(CNC(=O)c3nc4sc5ccccc5c4c(=O)[nH]3)cc2N1 [2/25] |
| < 100 | < 250 | Cc1cc(CNC(=O)c2nc3sc4c(c3c(=O)[nH]2)CCC4)ccc1F [2/313] |
| < 100 | < 250 | O=C1COc2ccc(CNC(=O)c3nc4sc5c(c4c(=O)[nH]3)CCCC5)cc2N1 [2/33] |
| < 100 | < 250 | Nc1c(N2CCc3ccc(CNC(=O)c4nc5sc6c(c5c(=O)[nH]4)CCCCCC6)cc3C2)c(=O)c1=O [2/126] |
| 100 to 20000 |  | Nc1c(N2CCc3ccc(CNC(=O)c4nc5sc6c(c5c(=O)[nH]4)CCC(c4ccccc4)C6)cc3C2)c(=O)c1=O (stereo not drawn) [2/146] |
| 100 to 20000 |  | O=C(NC(c1ccccc1)c1ccccn1)c1nc2sc3c(c2c(=O)[nH]1)CCC3 (stereo not drawn) [2/328] |
| 100 to 20000 |  | NC(=O)[C@@H](NC(=O)c1nc2sc3c(c2c(=O)[nH]1)CCC3)c1ccccc1 [2/327] |
| < 100 | 250 to 20000 | CN(C)C(=O)C1CCc2sc3nc(C(=O)NCc4ccc5c(c4)NC(=O)CO5)[nH]c(=O)c3c21 (stereo not drawn) [2/173] |
| 100 to 20000 |  | O=C(NCc1ccc(CN2CCOCC2)cc1)c1nc2sc3c(c2c(=O)[nH]1)CCC3 [2/355] |
| < 100 | 250 to 20000 | O=C(NCc1cccc(N2CCSCC2)c1)c1nc2sc3c(c2c(=O)[nH]1)CCC3 [2/528] |
| < 100 | < 250 | Nc1c(N2CCc3ccc(CNC(=O)c4nc5sc6c(c5c(=O)[nH]4)CCOC6)cc3C2)c(=O)c1=O [2/153] |
| < 100 | < 250 | CCOC(=O)C1CCc2sc3nc(C(=O)NCc4ccc5c(c4)CN(c4c(N)c(=O)c4=O)CC5)[nH]c(=O)c3c21 (stereo not drawn) [2/114] |
| < 100 | < 250 | O=C1COc2ccc(CNC(=O)c3nc4sc5c(c4c(=O)[nH]3)CCOC5)cc2N1 [2/152] |
| 100 to 20000 |  | CC(C)(C)c1ccc2c(c1)sc1nc(C(=O)NCc3ccc4c(c3)CN(c3c(N)c(=O)c3=O)CC4)[nH]c(=O)c12 [2/144] |
| 100 to 20000 | 250 to 20000 | COc1ccc(CNC(=O)c2nc3sc4c(c3c(=O)[nH]2)CCC4)cc1 [2/384] |
| < 100 | < 250 | O=C1COc2ccc(CNC(=O)c3nc4sc5c(c4c(=O)[nH]3)CCCCC5)cc2N1 [2/117] |
| 100 to 20000 |  | O=C(CCc1ccc2sccc2c1)c1nc2sc3c(c2c(=O)[nH]1)CCC3 [2/352] |
| < 100 |  | O=C(NCc1ccc2occc2c1)c1nc2sc3c(c2c(=O)[nH]1)CCC3 [2/354] |

| IC50 [1] [nM] | IC50 [2] [nM] | SMILES |
| --- | --- | --- |
| < 100 |  | COC(=O)C1(CNC(=O)c2nc3sc4c(c3c(=O)[nH]2)CCC4)CCCCC1 [2/526] |
| 100 to 20000 |  | O=C1COc2cc(CNC(=O)c3nc4sc5c(c4c(=O)[nH]3)CCCC5)ccc2N1 [2/34] |
| < 100 | < 250 | NC(=O)CNC(=O)C1CCc2sc3nc(C(=O)NCc4ccc5c(c4)NC(=O)CO5)[nH]c(=O)c3c21 (stereo not drawn) [2/255] |
| < 100 | < 250 | Cc1cc(CNC(=O)C2CCc3sc4nc(C(=O)NCc5ccc6c(c5)NC(=O)CO6)[nH]c(=O)c4c32)ccc1F (stereo not drawn) [2/176] |
| 100 to 20000 |  | O=C(c1nc2sc3c(c2c(=O)[nH]1)CCC3)N1CC[C@H]2CCCC[C@@H]2C1 [2/305] |
| < 100 | < 250 | CCOC(=O)C1CCc2sc3nc(C(=O)NCc4ccc5c(c4)NC(=O)CO5)[nH]c(=O)c3c21 (stereo not drawn) [2/113] |
| 100 to 20000 | 250 to 20000 | O=C(NCc1ccc(F)c(Cl)c1)c1nc2sc3c(c2c(=O)[nH]1)CCC3 [2/433] |
| < 100 | < 250 | Nc1c(NCc2cccc(CNC(=O)c3nc4sc5c(c4c(=O)[nH]3)CCC5)c2)c(=O)c1=O [2/413] |
|  | 250 to 20000 | CC(=O)N1Cc2sc3nc(C(=O)NCc4ccc5c(c4)NC(=O)CO5)[nH]c(=O)c3c2C1 [Example 42] |
| 100 to 20000 |  | COC(=O)C1SCCN1C(=O)c1nc2sc3c(c2c(=O)[nH]1)CCC3 (stereo not drawn) [2/307] |
|  | 250 to 20000 | O=C1COc2ccc(CNC(=O)c3nc4sc5c(c4c(=O)[nH]3)CCNCC5)cc2N1 [15/3] |
| 100 to 20000 | 250 to 20000 | O=C(NCc1cccc(F)c1)c1nc2sc3c(c2c(=O)[nH]1)CCC3 [2/292] |
| < 100 |  | O=C1COc2ccc(CNC(=O)c3nc4cc5c(cc4c(=O)[nH]3)CCC5)cc2N1 [2/246] |
| 100 to 20000 |  | NC(=O)[C@@H]1CCC[C@@H]1NC(=O)c1nc2sc3c(c2c(=O)[nH]1)CCC3 [2/323] |
| < 100 | 250 to 20000 | COc1cccc(CNC(=O)c2nc3sc4c(c3c(=O)[nH]2)CCS(=O)(=O)C4)c1 [2/129] |
|  | < 250 | CCNC(=O)CC1CCCc2sc3nc(C(=O)NCc4ccc5c(c4)NC(=O)CO5)[nH]c(=O)c3c21 (stereo not drawn) [2/269] |
| < 100 | < 250 | NC(=O)C1CCc2sc3nc(C(=O)NCc4ccc5c(c4)NC(=O)CO5)[nH]c(=O)c3c21 (stereo not drawn) [Example 2/166] |
| < 100 | < 250 | NC(=O)C1CCCCc2sc3nc(C(=O)NCc4ccc5c(c4)NC(=O)CO5)[nH]c(=O)c3c21 (stereo not drawn) [2/267] |
| 100 to 20000 |  | O=C(NCc1csc2ccccc12)c1nc2sc3c(c2c(=O)[nH]1)CCC3 [2/333] |
| < 100 |  | Nc1c(N2CCc3ccc(CNC(=O)c4nc5sc6c(c5c(=O)[nH]4)CCCS6)cc3C2)c(=O)c1=O [2/120] |
| 100 to 20000 |  | O=C(NCC1CC1)c1nc2sc3c(c2c(=O)[nH]1)CCC3 [2/291] |
|  | 250 to 20000 | COc1cccc(CNC(=O)c2nc3sc4c(c3c(=O)[nH]2)CCC4)c1 [2/387] |
| < 100 |  | O=C(NCc1cccnc1)c1nc2sc3c(c2c(=O)[nH]1)CCC3 [2/309] |

| IC50 [1] [nM] | IC50 [2] [nM] | SMILES |
| --- | --- | --- |
| < 100 |  | O=C1COc2ccc(CNC(=O)c3nc4sc5c(c4c(=O)[nH]3)CCC(c3ccccc3)C5)cc2N1 (stereo not drawn) [2/145] |
|  | < 250 | C#CCNC(=O)C1CCc2sc3nc(C(=O)NCc4ccc5c(c4)NC(=O)CO5)[nH]c(=O)c3c21 (stereo not drawn) [2/223] |
| 100 to 20000 |  | CC(C)(C)c1ccc2c(c1)sc1nc(C(=O)NCc3ccc4c(c3)NC(=O)CO4)[nH]c(=O)c12 [2/143] |
| < 100 |  | O=C1COc2ccc(CNC(=O)c3nc4sc5c(c4c(=O)[nH]3)CCCS5)cc2N1 [2/119] |
|  | < 250 | O=C1COc2ccc(CNC(=O)c3nc4sc5c(c4c(=O)[nH]3)CCCSC5)cc2N1 [Example 2/218] |
|  | 250 to 20000 | O=C(NCc1cccc(N2CCOCC2)c1)c1nc2sc3c(c2c(=O)[nH]1)CCC3 [2/529] |
|  | 250 to 20000 | O=C(NCc1ccc2c(c1)OCO2)c1nc2sc3c(c2c(=O)[nH]1)CCC3 [2/382] |
| 100 to 20000 |  | CC(C)NC(=O)c1nc2sc3c(c2c(=O)[nH]1)CCC3 [2/294] |
| < 100 |  | O=C1COc2ccc(CNC(=O)c3nc4sc5c(c4c(=O)[nH]3)CNCC5)cc2N1 [15/5] |
| 100 to 20000 |  | NS(=O)(=O)c1ccc(CCNC(=O)c2nc3sc4c(c3c(=O)[nH]2)CCC4)cc1 [2/530] |
| 100 to 20000 |  | O=C1COc2cc(CNC(=O)c3nc4sc5ccccc5c4c(=O)[nH]3)ccc2N1 [2/24] |
| < 100 |  | Nc1c(N2CCc3ccc(CNC(=O)c4nc5sc6ccccc6c5c(=O)[nH]4)cc3C2)c(=O)c1=O [2/67] |
| 100 to 20000 |  | O=C(NCc1ccsc1)c1nc2sc3c(c2c(=O)[nH]1)CCC3 [2/344] |
| 100 to 20000 |  | O=C(NCc1ccc(C(F)(F)F)nc1)c1nc2sc3c(c2c(=O)[nH]1)CCC3 [2/368] |
|  | < 250 | O=C1COc2ccc(CNC(=O)c3nc4sc5c(c4c(=O)[nH]3)CN(Cc3ccccc3)C5)cc2N1 [Example 43/1] |
| < 100 |  | O=C(NCc1ccc(F)c(OC(F)(F)F)c1)c1nc2sc3c(c2c(=O)[nH]1)CCC3 [2/332] |
| < 100 |  | O=C(NCc1cccc(N2CCOCC2)c1)c1nc2sc3c(c2c(=O)[nH]1)CCC3 [2/359] |
| 100 to 20000 |  | C[C@@H](NC(=O)c1nc2sc3c(c2c(=O)[nH]1)CCC3)c1ccc(F)cc1 [2/319] |
| < 100 |  | CN1CCc2c(sc3nc(C(=O)NCc4ccc5c(c4)NC(=O)CO5)[nH]c(=O)c23)C1 [2/29] |
| 100 to 20000 |  | CS(=O)(=O)c1ccc(CNC(=O)c2nc3sc4c(c3c(=O)[nH]2)CCC4)cc1 [2/302] |
| < 100 |  | O=C1COc2ccc(CNC(=O)c3nc4sc5c(c4c(=O)[nH]3)CCCNC5)cc2N1 [15/4] |
| < 100 |  | NS(=O)(=O)c1ccc(CNC(=O)c2nc3sc4c(c3c(=O)[nH]2)CCC4)s1 [2/367] |

| SMILES | IC50 [1] [nM] | IC50 [2] [nM] |
| --- | --- | --- |
| O=C1COc2ccc(CNC(=O)c3nc4sc5c(c4c(=O)[nH]3)C3CCN5CC3)cc2N1 [2/89] | < 100 |  |
| Nc1c(N2CCc3ccc(CNC(=O)c4nc5sc6c(c5c(=O)[nH]4)C4CCN6CC4)cc3C2)c(=O)c1=O [2/90] | < 100 |  |
